The nature of the data set: Glass transition temperature (DSC). The following applies: amorphous form. The data set is classed as physicochemical.

Results on one molecule are retold here after US9226902B2, “Stabilized transdermal drug delivery system” (Mylan Technologies Inc., priority 2008, dated 2016).

Experimental: The glass transition temperature of undispersed amorphous scopolamine is about 10° C.

Turning to `CN1[C@@H]2C[C@@H](OC(=O)[C@H](CO)c3ccccc3)C[C@H]1[C@@H]1O[C@@H]12` [undispersed amorphous scopolamine, scopolamine], the “glass transition temperature (Tg)” value is “about 10 °C”.
